Measurements taken from patent US7081449B2, “Pyrido[2,3-d]pyrimidine and pyrimido[4,5-d]pyrimidine nucleosides” (Valeant Research & Development, priority 2000, dated 2006).

Experiments:
Type in all cases: cell-based
[1] = system: melanoma B16 and 140 cells, Leukemia cells (K562, M), and colon HT-29 cells; experiment: Anti-clonogenic activity in various cancer cells; conditions: FIG. 3; compared against Ecyd and Gemzar
Procedure: To determine the anti-clonogenic activity of contemplated compounds in various cancer cells experiments were conducted. […] Here again, 4-amino-5-oxo-8-(β-D-ribofuranosyl)pyrido[2,3-d]pyrimidine was used as a representative compound of contemplated compounds and compared against Ecyd and Gemzar.

RNA Polymerase II = RNA Polymerase II dependent RNA synthesis; conditions: FIG. 7
Procedure: (§1) To further investigate the influence of contemplated compounds (here again represented by 4-amino-5-oxo-8-(β-D-ribofuranosyl)pyrido[2,3-d]pyrimidine) on RNA synthesis dependent on RNA Polymerase I, II, and III, experiments were conducted.

[2] = system: CNS: SF-268, SF-295, SF-539, SNB-19, SNB-75, U251; experiment: Determination of EC50 in cancer cells, CNS; conditions: CNS tumor cell lines; incubated at least 24 hours
Procedure: (§2) Cancer cells were incubated with 4-amino-5-oxo-8-(β-D-ribofuranosyl)pyrido[2,3-d]pyrimidine at various concentrations for a period of at least 24 hours and EC50 was determined. Table 1 gives in vitro activity of 4-amino-5-oxo-8-(β-D-ribofuranosyl)pyrido[2,3-d]pyrimidine in nM concentrations.

[3] = system: Leukemia: SR, RPMI 8226, MOLT-4, K-562, HL-60, CCRF-CEM; experiment: Determination of EC50 in cancer cells, leukemia; conditions: Leukemia cell lines; incubated at least 24 hours
Procedure: as §2

[4] = system: Liver: PLC/PRF5, Hep3B, Huh7; experiment: Determination of EC50 in cancer cells, liver; conditions: Liver tumor cell lines; incubated at least 24 hours
Procedure: as §2

[5] = system: Lung: NCI-H522, NCI-H460, NCI-H322M, NCI-H23, HOP-92, HOP-62, EKVX, A549; experiment: Determination of EC50 in cancer cells, lung; conditions: Lung tumor cell lines; incubated at least 24 hours
Procedure: as §2

[6] = system: Melanoma: LOX IM VI, MALME-3M, M14, SK-MEL-2, SK-MEL-28, ACC-257, UACC-62; experiment: Determination of EC50 in cancer cells, melanoma; conditions: Melanoma cell lines; incubated at least 24 hours
Procedure: as §2

K562 cells = experiment: Inhibition of RNA synthesis, H^3-Uridine incorporation; conditions: various time periods and concentrations, FIG. 5
Excerpt: RNA synthesis was monitored in K562 cells using H^3-Uridine incorporation following a general protocol as outlined below.

[7] = system: Colon: SW-620, KM 12, HT29, HCT-15, CHCT-116, HCC-2998, COLO-205; experiment: Determination of EC50 in cancer cells, colon; conditions: Colon tumor cell lines; incubated at least 24 hours
Procedure: as §2

MEK = experiment: MEK-ERK phosphorylation, autoradiograph, NB4 leukemic cells; conditions: FIG. 8
Procedure: (§3) To investigate the possibility of activation of the MEK-ERK signal transduction pathway by contemplated compounds an experiment was conducted. […] Consequently, it is contemplated that the compounds according to the inventive subject matter may induce apoptosis through activation of MEK (which can be abolished by inhibitors of the MEK-ERK pathway).

Raf = experiment: as above; conditions: FIG. 8
Procedure: as §3

ERK = experiment: as above; conditions: FIG. 8
Procedure: as §3

[8] = system: Breast: MCF 7, NCI/ADR-RES, MDA-MB-435, BT-549, T-47D; experiment: Determination of EC50 in cancer cells, breast; conditions: Breast tumor cell lines; incubated at least 24 hours
Procedure: as §2

RNA Polymerase I = RNA Polymerase I dependent RNA synthesis (28S and 18S rRNA processing); conditions: FIG. 6
Procedure: as §1

[9] = system: Kidney: 786-0, A498, ACHN, CAKI-1, RXF 393, UO-31; experiment: Determination of EC50 in cancer cells, kidney; conditions: Kidney tumor cell lines; incubated at least 24 hours
Procedure: as §2

[10] = system: Ovarian: IGROV1, OVCAR-3, OVCAR-4, OVCAR-5, SK-OV-3; experiment: Determination of EC50 in cancer cells, ovarian; conditions: Ovarian tumor cell lines; incubated at least 24 hours
Procedure: as §2

Pancreas: PaCa-2, PANC-1 = experiment: Determination of EC50 in cancer cells, pancreas; conditions: Pancreas tumor cell lines; incubated at least 24 hours
Procedure: as §2

NB4 cells (Leukemia) = experiment: Induction of apoptosis, histone-DNA ELISA; conditions: FIGS. 4A and 4B
Procedure: (§4) In order to determine how contemplated compounds interact with cancer cells, NB4 cells (Leukemia) and Prostate 81 (prostate cancer cells) cells were incubated with 4-amino-5-oxo-8-(β-D-ribofuranosyl)pyrido[2,3-d]pyrimidine, Ecyd, and Gemzar, and apoptosis was monitored by histone-DNA ELISA.

[11] = system: Prostate 81 (prostate cancer cells); experiment: Induction of apoptosis, histone-DNA ELISA; conditions: Prostate 81 cells, FIGS. 4A and 4B
Procedure: as §4

Prostate: PC-3, DU-145 = experiment: Determination of EC50 in cancer cells, prostate; conditions: Homo sapiens, Prostate tumor cell lines, incubated at least 24 hours
Procedure: as §2

RNA Polymerase III = RNA Polymerase III dependent RNA synthesis; conditions: FIG. 6
Procedure: as §1

Compound: Nc1ncnc2c1c(=O)ccn2[C@@H]1O[C@H](CO)[C@@H](O)[C@H]1O [4-amino-5-oxo-8-(β-D-ribofuranosyl)pyrido[2,3-d]pyrimidine]
- anti-clonogenic activity [1]: significant anti-clonogenic activity
- inhibition of RNA-Polymerase II dependent RNA synthesis (RNA Polymerase II): inhibit RNA-Polymerase II dependent RNA synthesis in a concentration dependent manner
- EC50 [2]: 125 nM
- EC50 [3]: 34 nM
- EC50 [4]: 288 nM
- EC50 [5]: 68 nM
- EC50 [6]: 30 nM
- inhibition of RNA synthesis (K562 cells): inhibition of RNA synthesis
- EC50 [7]: 16 nM
- phosphorylation of MEK (MEK): enhance phosphorylation of MEK
- phosphorylation of Raf (Raf): do not enhance phosphorylation of Raf
- phosphorylation of ERK (ERK): phosphorylation of MEK and ERK
- EC50 [8]: 18 nM
- inhibition of processing of 28S and 18S rRNA (RNA Polymerase I): may inhibit processing of 28S and 18S rRNA
- EC50 [9]: 44 nM
- EC50 [10]: 21 nM
- EC50 (Pancreas: PaCa-2, PANC-1): 188 nM
- induction of apoptosis (NB4 cells (Leukemia)): induce apoptosis in a dose dependent manner
- induction of apoptosis [11]: induce apoptosis in a dose dependent manner
- EC50 (Prostate: PC-3, DU-145): 19 nM
- inhibition of RNA Polymerase III (RNA Polymerase III): fail to significantly inhibit RNA Polymerase III
